Test results as given in BigSolDB 2.1.

NC(N)=NCCC[C@H](NC(=O)OCc1ccccc1)C(=O)O
solubility (mole fraction)
Details	283.15 K	288.15 K	293.15 K	298.15 K	303.15 K	313.15 K	323.15 K
in 2-butanone	9.88e-05	–	0.000118	–	0.000136	0.000164	0.000196
in DMF	0.00164	–	0.00346	–	0.00597	0.00993	0.0183
in acetone	2.5e-05	–	4.7e-05	–	5.73e-05	6.89e-05	9.91e-05
in acetonitrile	1.5e-05	–	2.71e-05	–	3.52e-05	4.03e-05	4.82e-05
in dichloromethane	8.03e-05	0.000103	0.000144	0.000183	0.000233	–	–
in ethanol	0.000193	–	0.000255	–	0.000379	0.000558	0.000898
in ethyl acetate	4.73e-05	–	6.24e-05	–	7.31e-05	8.72e-05	9.78e-05
in isopropanol	7.15e-05	–	0.000127	–	0.000163	0.000223	0.000275
in methanol	0.000468	–	0.000602	–	0.00107	0.00137	0.00207
in n-butanol	6.05e-05	–	0.000103	–	0.000141	0.000178	0.000239
in n-hexane	4.3e-05	–	5.7e-05	–	7.42e-05	8.12e-05	0.000119
in water	0.000198	–	0.000307	–	0.000417	0.000663	0.00104
